Laboratory results as given in patent US20250101003A1, “SPIROCYCLIC CAV2.3 ANTAGONISTS” (LARIO THERAPEUTICS LIMITED, priority 2021, published 2025).

What was measured:
Cav2.3 [1] = target: T1, Cav2.3 (Homo sapiens, UniProt Q15878); test: Human Cav2.3 channel calcium-influx assay; assay type: cell-based; settings: HEK-293 T-Rex/Kir2.1/Cav2.3e-β4-α2δ1 cells, Fluo8 fluorescence, without pluronic acid; read-out: Cav2.3 (pIC50) (converted)
Method in brief: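 Doxycycline-induced HEK-293 T-Rex/Kir2.1 clone stably expressing Cav2.3e with β4-α2δ1, loaded with Fluo8 NW; compounds (8 points from 30 μM, half-log, 0.3% DMSO) preincubated 3 min at RT. Depolarized with 20 mM KCl/2 mM CaCl2; peak-minus-baseline fluorescence over 130 s normalized to neutral and inhibitor controls as % activity.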
Target sequence in this assay (Q15878 1-747 limits assumed): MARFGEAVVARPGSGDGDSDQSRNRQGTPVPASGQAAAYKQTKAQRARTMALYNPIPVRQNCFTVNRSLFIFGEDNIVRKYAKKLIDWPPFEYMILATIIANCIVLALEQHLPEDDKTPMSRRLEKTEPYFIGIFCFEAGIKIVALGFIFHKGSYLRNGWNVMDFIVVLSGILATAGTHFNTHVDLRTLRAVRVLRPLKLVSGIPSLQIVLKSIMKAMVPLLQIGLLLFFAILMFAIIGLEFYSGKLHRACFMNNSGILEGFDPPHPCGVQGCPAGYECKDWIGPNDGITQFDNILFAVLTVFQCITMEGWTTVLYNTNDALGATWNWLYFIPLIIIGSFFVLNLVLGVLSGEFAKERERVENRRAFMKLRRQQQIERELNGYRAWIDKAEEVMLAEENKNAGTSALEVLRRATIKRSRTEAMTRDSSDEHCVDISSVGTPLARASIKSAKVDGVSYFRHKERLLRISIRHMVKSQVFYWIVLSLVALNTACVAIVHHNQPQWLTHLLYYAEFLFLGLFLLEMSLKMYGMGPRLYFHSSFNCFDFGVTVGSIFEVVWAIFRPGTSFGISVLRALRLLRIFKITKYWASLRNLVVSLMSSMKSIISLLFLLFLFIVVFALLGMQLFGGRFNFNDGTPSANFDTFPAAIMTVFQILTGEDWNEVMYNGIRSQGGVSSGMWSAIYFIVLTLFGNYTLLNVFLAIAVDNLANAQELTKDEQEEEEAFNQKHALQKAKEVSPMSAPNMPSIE
Target sequence in this assay (Q15878 1126-2313 limits assumed): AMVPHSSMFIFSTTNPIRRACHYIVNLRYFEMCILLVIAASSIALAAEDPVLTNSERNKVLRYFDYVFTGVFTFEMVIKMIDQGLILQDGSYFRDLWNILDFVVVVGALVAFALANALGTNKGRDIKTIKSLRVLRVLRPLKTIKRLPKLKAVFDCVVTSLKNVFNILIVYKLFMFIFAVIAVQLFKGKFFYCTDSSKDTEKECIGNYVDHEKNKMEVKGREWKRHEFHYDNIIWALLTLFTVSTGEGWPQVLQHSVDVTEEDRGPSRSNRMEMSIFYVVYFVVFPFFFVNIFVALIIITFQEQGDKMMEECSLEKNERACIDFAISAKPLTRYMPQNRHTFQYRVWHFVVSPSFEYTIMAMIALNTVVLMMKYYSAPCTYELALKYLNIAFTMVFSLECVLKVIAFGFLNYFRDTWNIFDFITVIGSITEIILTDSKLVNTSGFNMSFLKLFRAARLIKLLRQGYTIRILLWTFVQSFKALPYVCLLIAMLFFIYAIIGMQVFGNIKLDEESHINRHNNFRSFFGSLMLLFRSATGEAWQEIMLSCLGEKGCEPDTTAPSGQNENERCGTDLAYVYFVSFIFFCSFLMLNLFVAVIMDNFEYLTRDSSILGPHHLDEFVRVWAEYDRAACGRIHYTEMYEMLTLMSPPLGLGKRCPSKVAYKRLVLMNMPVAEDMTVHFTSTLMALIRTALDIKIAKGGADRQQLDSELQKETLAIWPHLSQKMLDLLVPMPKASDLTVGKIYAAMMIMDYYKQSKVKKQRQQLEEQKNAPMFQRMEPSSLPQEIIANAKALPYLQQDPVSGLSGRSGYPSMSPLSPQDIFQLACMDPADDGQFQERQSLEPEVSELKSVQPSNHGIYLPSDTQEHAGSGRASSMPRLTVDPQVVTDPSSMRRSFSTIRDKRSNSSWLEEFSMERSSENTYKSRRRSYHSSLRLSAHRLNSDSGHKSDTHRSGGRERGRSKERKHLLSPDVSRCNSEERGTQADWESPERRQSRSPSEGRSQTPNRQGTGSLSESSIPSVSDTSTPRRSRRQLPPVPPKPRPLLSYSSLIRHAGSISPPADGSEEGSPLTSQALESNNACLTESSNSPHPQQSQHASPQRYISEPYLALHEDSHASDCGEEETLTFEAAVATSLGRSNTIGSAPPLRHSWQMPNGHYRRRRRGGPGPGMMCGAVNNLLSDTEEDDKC

Cav2.3 [2] = target: T1, Cav2.3; test: Whole-cell patch clamp assay (QPatch 16X); assay type: cell-based; settings: whole-cell voltage clamp, HEK-293 T-Rex/Kir2.1/Cav2.3e-β4-α2δ1 cells, room temperature; read-out: Cav2.3 (pIC50) (converted)
Procedure: HEK-293 T-Rex/Kir2.1/Cav2.3e-β4-α2δ1 cells were seeded 96 hours before experiment and doxycycline at 0.2 μg/mL was added 24 hours before experiment. Just before the experiments cells were washed twice with D-PBS w/o Ca2+/Mg2+ and gently detached from the flask with Detachin. Cells were then re-suspended in the suspension solution (25 mL EX-CELL ACF CHO medium; 0.25 mL of 100× Penicillin/Streptomycin) and placed on the Automated Patch-clamp platform (QPatch 16X).
Standard whole-cell voltage clamp experiments were performed at room temperature using the single hole technology and the following intracellular and extracellular solutions (ICS and ECS, respectively) were used. ICS (mM): CsF 60, CsCl 50, NaCl 10, EGTA 20, BAPTA 5, HEPES 10, NaGTP 0.3, MgATP 5 (pH 7.2; ECS (mM): NMDG-Cl 120, BaCl2 20, HEPES 10, EGTA 7 (pH 7.4). After establishment of the seal and the passage in the whole-cell configuration, the Cav2.3 dependent current was evoked by challenging the cells with the following voltage protocol: the plasma membrane was held at −80 mV then a 50 ms-long depolarizing pulse at 0 mV, followed by a 50 ms-long hyperpolarizing pulse at −100 mV were applied and finally the plasma membrane was held back to −80 mV. This voltage protocol was applied every 10 seconds. Cav2.3 dependent current was first measured in control condition (vehicle, 0.1% DMSO), in the presence of increasing concentration of the compound under investigation and finally SNX 482 was added to fully block any R-type Cav2.3 dependent current.
For data collection, the Sophion proprietary software was used while the analysis was performed off-line using Excel and GraphPad Prism. The inward current (Area Under Curve) measured during each depolarizing pulse was normalized to cell membrane capacitance (Cm) to obtain the average inward current density in each condition (control, compound under investigation and SNX 482). Then, the inhibitory effect of the compound under investigation was evaluated as % of the remaining inward current, normalized to the internal control. […] All data were expressed as mean±S.E
Target sequence in this assay (Q15878 1-747 limits assumed): as the sequence (Q15878 1-747 limits assumed) above
Target sequence in this assay (Q15878 1126-1966 limits assumed): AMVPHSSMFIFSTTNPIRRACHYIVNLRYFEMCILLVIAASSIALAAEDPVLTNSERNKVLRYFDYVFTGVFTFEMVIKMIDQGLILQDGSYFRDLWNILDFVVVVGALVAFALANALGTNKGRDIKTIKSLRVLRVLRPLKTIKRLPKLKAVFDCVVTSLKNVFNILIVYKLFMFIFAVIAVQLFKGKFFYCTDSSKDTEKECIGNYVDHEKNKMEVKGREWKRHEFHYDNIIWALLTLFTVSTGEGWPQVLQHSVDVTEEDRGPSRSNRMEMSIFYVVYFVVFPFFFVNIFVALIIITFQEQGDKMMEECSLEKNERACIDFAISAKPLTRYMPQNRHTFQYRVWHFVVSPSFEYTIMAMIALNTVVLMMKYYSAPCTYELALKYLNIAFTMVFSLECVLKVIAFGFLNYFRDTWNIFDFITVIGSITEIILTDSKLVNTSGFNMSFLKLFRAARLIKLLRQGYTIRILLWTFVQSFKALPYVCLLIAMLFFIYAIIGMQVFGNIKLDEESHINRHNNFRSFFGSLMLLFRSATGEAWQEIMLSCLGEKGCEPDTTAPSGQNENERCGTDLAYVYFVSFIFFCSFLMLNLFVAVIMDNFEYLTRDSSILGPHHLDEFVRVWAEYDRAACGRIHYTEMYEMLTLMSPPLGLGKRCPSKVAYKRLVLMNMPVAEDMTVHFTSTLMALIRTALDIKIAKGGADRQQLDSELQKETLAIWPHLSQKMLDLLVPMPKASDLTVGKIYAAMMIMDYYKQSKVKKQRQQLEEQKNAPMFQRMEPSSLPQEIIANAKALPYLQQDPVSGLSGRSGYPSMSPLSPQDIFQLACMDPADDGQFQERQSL

| SMILES | IC50 (Cav2.3 [1]) [nM] | IC50 (Cav2.3 [2]) [nM] |
| --- | --- | --- |
| CCOC(=O)N1CCc2ccc(S(=O)(=O)N3CC4(CCC4)CC3C)cc2C1 (single isomer, unassigned) [Example 23, Ethyl 7-((7-methyl-6-azaspiro[3.4]octan-6-yl)sulfonyl)-3,4-dihydroisoquinoline-2(1H)-carboxylate] | 501 | 832 |
| CC1CC2(CCC2)CN1S(=O)(=O)c1ccc2c(c1)CN(C(=O)c1ccccc1)CC2 (single isomer, unassigned) [Example 27, (7-((7-Methyl-6-azaspiro[3.4]octan-6-yl)sulfonyl)-3,4-dihydroisoquinolin-2(1H)-yl)(phenyl)methanone] | 851 | 832 |
| CC1CC2(CCC2)CN1S(=O)(=O)c1ccc2c(c1)CN(C(=O)c1ccccc1)CC2 (single isomer, unassigned) [Example 28, (7-((7-methyl-6-azaspiro[3.4]octan-6-yl)sulfonyl)-3,4-dihydroisoquinolin-2(1H)-yl)(phenyl)methanone] | 1510 | 1700 |
| CC(C)C(=O)N1CCc2ccc(S(=O)(=O)N3CC4(CCC4)CC3C)cc2C1 (single isomer, unassigned) [Example 31, 2-Methyl-1-(7-((7-methyl-6-azaspiro[3.4]octan-6-yl)sulfonyl)-3,4-dihydroisoquinolin-2(1H)-yl)propan-1-one] | 646 | 4070 |
| CCC1CC2(CCC2)CN1S(=O)(=O)c1ccc2nc(C)sc2c1 (stereo not shown) [Example 1, 6-((7-Ethyl-6-azaspiro[3.4]octan-6-yl)sulfonyl)-2-methylbenzo[d]thiazole] | 1410 | 2820 |
| CC1CC2(CCC2)CN1S(=O)(=O)c1ccc2c(c1)CN(C(=O)Cc1ccccc1)CC2 (stereo not shown) [Example 21, 1-(7-((7-Methyl-6-azaspiro[3.4]octan-6-yl)sulfonyl)-3,4-dihydroisoquinolin-2(1H)-yl)-2-phenylethan-1-one] | 955 | 933 |
| CCOC(=O)N1CCc2ccc(S(=O)(=O)N3CC4(CCC4)CC3C)cc2C1 (stereo not shown) [Example 22, Ethyl 7-((7-methyl-6-azaspiro[3.4]octan-6-yl)sulfonyl)-3,4-dihydroisoquinoline-2(1H)-carboxylate] | 741 | 759 |
| CC1CC2(CCC2)CN1S(=O)(=O)c1ccc2c(c1)CN(C(=O)c1ccccc1)CC2 (stereo not shown) [Example 26, (7-((7-Methyl-6-azaspiro[3.4]octan-6-yl)sulfonyl)-3,4-dihydroisoquinolin-2(1H)-yl)(phenyl)methanone] | 1100 | 525 |
| CC(C)C(=O)N1CCc2ccc(S(=O)(=O)N3CC4(CCC4)CC3C)cc2C1 (stereo not shown) [Example 30, 2-Methyl-1-(7-((7-methyl-6-azaspiro[3.4]octan-6-yl)sulfonyl)-3,4-dihydroisoquinolin-2(1H)-yl)propan-1-one] | 912 | 1700 |

Further lines, results first:

| IC50 (Cav2.3 [1]) [nM] | IC50 (Cav2.3 [2]) [nM] | SMILES |
| --- | --- | --- |
| 1580 | 2340 | CC(C)C(=O)N1CCc2ccc(S(=O)(=O)N3CC4(CCC4)CC3C)cc2C1 (single isomer, unassigned) [Example 32, 2-methyl-1-(7-((7-methyl-6-azaspiro[3.4]octan-6-yl)sulfonyl)-3,4-dihydroisoquinolin-2(1H)-yl)propan-1-one] |
| 1170 | 1580 | CCC1CC2(CCC2)CN1S(=O)(=O)c1cccs1 (single isomer, unassigned) [Example 71, 7-ethyl-6-(thiophen-2-ylsulfonyl)-6-azaspiro[3.4]octane] |
| 1410 | 3720 | CC1CC2(CCC2)CN1S(=O)(=O)c1cccs1 (single isomer, unassigned) [Example 104, 7-methyl-6-(thiophen-2-ylsulfonyl)-6-azaspiro[3.4]octane] |
| 1860 | 2820 | CCC1CC2(CCC2)CN1S(=O)(=O)c1ccc2c(c1)CN(C(=O)C(F)(F)F)CC2 (stereo not shown) [Example 33, 1-(7-((7-Ethyl-6-azaspiro[3.4]octan-6-yl)sulfonyl)-3,4-dihydroisoquinolin-2(1H)-yl)-2,2,2-trifluoroethan-1-one] |
| 708 | 1170 | CC(C)C(=O)N1CCc2ccc(S(=O)(=O)N3CC4(CCCC4)CC3C)cc2C1 (stereo not shown) [Example 100, 2-Methyl-1-(7-((3-methyl-2-azaspiro[4.4]nonan-2-yl)sulfonyl)-3,4-dihydroisoquinolin-2(1H)-yl)propan-1-one] |
